Assay results: the supplement of paper PMC10307832

Key:
Test in all cases: relative viability (nuclei count vs DMSO), 5 days (fraction); higher = more cells survive
17-AAG + Vorinostat = compound: C=CCNC1=C2C[C@@H](C)C[C@H](OC)[C@H](O)[C@@H](C)/C=C(\C)[C@H](OC(N)=O)[C@@H](OC)/C=C\C=C(/C)C(=O)NC(=CC1=O)C2=O [17-AAG] + O=C(CCCCCCC(=O)Nc1ccccc1)NO [Vorinostat] (partner 1 µM)
Procedure, shortened: (§1)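 For relative viability, nuclei counts in treated wells were divided by those in vehicle wells. Lung cancer cell lines had been pin-tool dosed in 1536-well plates the day after seeding and cultured for 5 days, then fixed and stained in one step (final 0.05% Triton X-100, 1% formaldehyde, 1 ug/ml Hoechst) and imaged at 4×. Doses were one drug alone or a fixed anchor-drug dose plus five library-drug doses (not always all listed) in √10 steps, and values are duplicate-plate medians.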

17-AAG + Palbociclib = compound: C=CCNC1=C2C[C@@H](C)C[C@H](OC)[C@H](O)[C@@H](C)/C=C(\C)[C@H](OC(N)=O)[C@@H](OC)/C=C\C=C(/C)C(=O)NC(=CC1=O)C2=O [17-AAG] + CC(=O)c1c(C)c2cnc(Nc3ccc(N4CCNCC4)cn3)nc2n(C2CCCC2)c1=O [Palbociclib] (partner 0.5 µM)
Procedure, shortened: as §1

17-AAG + Dasatinib = compound: C=CCNC1=C2C[C@@H](C)C[C@H](OC)[C@H](O)[C@@H](C)/C=C(\C)[C@H](OC(N)=O)[C@@H](OC)/C=C\C=C(/C)C(=O)NC(=CC1=O)C2=O [17-AAG] + Cc1nc(Nc2ncc(C(=O)Nc3c(C)cccc3Cl)s2)cc(N2CCN(CCO)CC2)n1 [Dasatinib] (partner 0.075 µM)
Procedure, shortened: as §1

17-AAG + Pemetrexed = compound: C=CCNC1=C2C[C@@H](C)C[C@H](OC)[C@H](O)[C@@H](C)/C=C(\C)[C@H](OC(N)=O)[C@@H](OC)/C=C\C=C(/C)C(=O)NC(=CC1=O)C2=O [17-AAG] + Nc1nc2[nH]cc(CCc3ccc(C(=O)N[C@@H](CCC(=O)O)C(=O)O)cc3)c2c(=O)[nH]1 [Pemetrexed] (partner 0.2 µM)
Procedure, shortened: as §1

Row | Cell Line | relative viability (17-AAG + Vorinostat; first compound 0.00128 µM) | relative viability (17-AAG + Vorinostat; first compound 0.004048 µM) | relative viability (17-AAG + Vorinostat; first compound 0.0128 µM) | relative viability (17-AAG + Vorinostat; first compound 0.04048 µM) | relative viability (17-AAG + Vorinostat; first compound 0.128 µM) | relative viability (17-AAG + Palbociclib; first compound 0.00128 µM) | relative viability (17-AAG + Palbociclib; first compound 0.004048 µM) | relative viability (17-AAG + Palbociclib; first compound 0.0128 µM) | relative viability (17-AAG + Palbociclib; first compound 0.04048 µM) | relative viability (17-AAG + Palbociclib; first compound 0.128 µM) | relative viability (17-AAG + Dasatinib; first compound 0.00128 µM) | relative viability (17-AAG + Dasatinib; first compound 0.004048 µM) | relative viability (17-AAG + Dasatinib; first compound 0.0128 µM) | relative viability (17-AAG + Dasatinib; first compound 0.04048 µM) | relative viability (17-AAG + Dasatinib; first compound 0.128 µM) | relative viability (17-AAG + Pemetrexed; first compound 0.00128 µM) | relative viability (17-AAG + Pemetrexed; first compound 0.004048 µM) | relative viability (17-AAG + Pemetrexed; first compound 0.0128 µM) | relative viability (17-AAG + Pemetrexed; first compound 0.04048 µM) | relative viability (17-AAG + Pemetrexed; first compound 0.128 µM)
1 | 201T | 0.932 | 0.945 | 0.858 | 0.55 | 0.252 | 0.364 | 0.351 | 0.353 | 0.372 | 0.35 | 0.551 | 0.618 | 0.438 | 0.352 | 0.262 | 0.317 | 0.342 | 0.361 | 0.23 | 0.213
2 | A-427 | 0.875 | 0.849 | 0.867 | 0.373 | 0.298 | 0.554 | 0.506 | 0.54 | 0.354 | 0.291 | 0.698 | 0.709 | 0.692 | 0.538 | 0.156 | 0.974 | 0.961 | 0.97 | 0.321 | 0.265
3 | ABC-1 | 1.15 | 1.15 | 1.21 | 1.06 | 0.724 | 0.701 | 0.805 | 0.772 | 0.79 | 0.602 | 0.607 | 0.666 | 0.633 | 0.514 | 0.392 | – | – | – | – | –
4 | BEN | 0.673 | 0.586 | 0.664 | 0.667 | 0.464 | 0.466 | 0.484 | 0.54 | 0.491 | 0.337 | 0.354 | 0.376 | 0.469 | 0.298 | 0.232 | 0.756 | 0.882 | 0.716 | 0.526 | 0.247
5 | CAL-12T | 0.796 | 0.729 | 0.671 | 0.65 | 0.282 | 0.499 | 0.364 | 0.486 | 0.191 | 0.167 | 0.475 | 0.396 | 0.456 | 0.326 | 0.0959 | 1.17 | 0.951 | 1.15 | 1.04 | 0.207
6 | COR-L23 | 0.489 | 0.408 | 0.47 | 0.319 | 0.109 | 0.278 | 0.338 | 0.336 | 0.198 | 0.0966 | 0.58 | 0.451 | 0.504 | 0.313 | 0.0763 | 0.2 | 0.2 | 0.211 | 0.225 | 0.157
7 | COR-L 105 | 0.876 | 0.983 | 0.783 | 0.728 | 0.439 | 0.431 | 0.389 | 0.406 | 0.356 | 0.384 | 0.388 | 0.306 | 0.356 | 0.202 | 0.263 | 1.17 | 1.32 | 1.02 | 0.968 | 0.687
8 | ChaGo-K-1 | 0.749 | 0.776 | 0.691 | 0.49 | 0.214 | 0.956 | 0.922 | 0.768 | 0.938 | 0.703 | 0.507 | 0.636 | 0.464 | 0.335 | 0.186 | 0.25 | 0.276 | 0.264 | 0.253 | 0.204
9 | EKVX | 0.783 | 0.802 | 0.719 | 0.423 | 0.567 | 0.357 | 0.391 | 0.363 | 0.152 | 0.127 | 0.414 | 0.542 | 0.472 | 0.343 | 0.229 | 0.475 | 0.381 | 0.491 | 0.17 | 0.131
10 | EMC-BAC-2 | 0.609 | 0.506 | 0.387 | 0.199 | 0.357 | 0.544 | 0.525 | 0.521 | 0.462 | 0.4 | 0.365 | 0.411 | 0.28 | 0.258 | 0.169 | 0.504 | 0.536 | 0.548 | 0.448 | 0.383
11 | EPLC-272H | 0.398 | 0.426 | 0.109 | 0.115 | 0.0985 | 0.34 | 0.323 | 0.348 | 0.147 | 0.0684 | 0.436 | 0.387 | 0.205 | 0.0643 | 0.0761 | 0.404 | 0.365 | 0.166 | 0.145 | 0.0977
12 | H3255 | 0.898 | 0.864 | 0.82 | 0.282 | 0.292 | 0.306 | 0.292 | 0.299 | 0.247 | 0.26 | 0.427 | 0.345 | 0.374 | 0.204 | 0.207 | 0.578 | 0.6 | 0.531 | 0.287 | 0.267
13 | HARA | 0.485 | 0.586 | 0.517 | 0.396 | 0.097 | 0.248 | 0.27 | 0.261 | 0.263 | 0.215 | 0.234 | 0.278 | 0.261 | 0.284 | 0.141 | 0.256 | 0.257 | 0.29 | 0.198 | 0.147
14 | HCC-15 | 0.892 | 0.995 | 0.641 | 0.407 | 0.263 | 0.693 | 0.687 | 0.429 | 0.31 | 0.149 | 0.617 | 0.434 | 0.0928 | 0.0907 | 0.0837 | 0.23 | 0.236 | 0.216 | 0.144 | 0.138
15 | HCC-44 | 1.17 | 1.13 | 1.19 | 1.09 | 0.917 | 0.944 | 1.01 | 0.991 | 0.978 | 0.914 | – | – | – | – | – | 0.639 | 0.619 | 0.649 | 0.694 | 0.352
16 | HCC-78 | 0.441 | 0.42 | 0.47 | 0.689 | 0.413 | 0.47 | 0.464 | 0.475 | 0.442 | 0.424 | 0.358 | 0.508 | 0.403 | 0.359 | 0.193 | 0.902 | 0.926 | 0.919 | 0.879 | 0.836
